Measured values from PMC10043345, “Discovery of BAR502, as potent steroidal antagonist of leukemia inhibitory factor receptor for the treatment of pancreatic adenocarcinoma” (Frontiers in Oncology, 2023).
Values joined by “and” are separate entries in the source; they are usually repeats but may differ in a detail not shown here. Equal values may be shown once.

Legend:
MIA PaCa-2 cells = test: MTS cell proliferation assay; format: cell-based, human
Method: The cell viability assay was done using the CellTiter 96 Aqueous One Solution Cell Proliferation Assay (Promega, Milano, Italy), a colorimetric method for accessing the number of viable cells in proliferation as described previously ([13]). MIA-PaCa 2 cells were seeded in DMEM complete medium at 36 *10^3 cells/100 uL well into 96-well tissue culture plate. After 24 h, cells were serum starved for 24 h and then were primed with the LIFR major ligand, LIF (10 ng/ml) alone or in combination with BAR502 (5,10 and 20 μM) or only with vehicle. In another experimental setting, MIA-PaCa 2 cells were triggered with PDL103 (10 μM) alone, LIF (10 ng/ml) alone or plus PDL103 or BAR502 (10 μM) or both. In a different setting cell were exposed to an antagonist of the Farnesoid X receptor (FXR), 3-(naphthalen-2-yl)-5-(piperidin-4-yl)-1,2,4-oxadiazole (GP7) (10 µM) ([54]), LIF (10 ng/ml) alone or in combination with GP7 or BAR502 or both. Then cell proliferation assessed as mentioned above. Absorbance was measured using a 96 well reader spectrophotometer (490 nm). In these experiments each experimental setting was replicated ten folds. For analysis the background readings with the medium alone, were subtracted from the samples read-outs.

human GPBAR1 = target: T1, human GPBAR1 (Homo sapiens, UniProt Q8TDU6); test: GPBAR1 transactivation (CRE-luciferase) in HEK-293T cells; format: cell-based
T1 construct: expressed in transfected cells; host or cells: HEK-293T
T1 sequence (Q8TDU6 1-330): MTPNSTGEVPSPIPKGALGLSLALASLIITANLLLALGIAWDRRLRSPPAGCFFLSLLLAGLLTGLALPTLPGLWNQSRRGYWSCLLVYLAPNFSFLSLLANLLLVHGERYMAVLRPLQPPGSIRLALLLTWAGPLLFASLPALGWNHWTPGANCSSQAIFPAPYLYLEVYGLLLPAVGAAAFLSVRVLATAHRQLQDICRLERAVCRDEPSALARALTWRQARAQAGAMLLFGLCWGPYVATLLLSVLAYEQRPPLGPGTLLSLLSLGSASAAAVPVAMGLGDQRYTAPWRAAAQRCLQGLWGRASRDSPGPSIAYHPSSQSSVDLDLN

LIF/LIFR complex = target: T2, LIF/LIFR complex (Homo sapiens, UniProt P42702); test: Alpha Screen inhibition of LIFR/LIF binding (cell-free); conditions: for IC50: cell-free, LIFR 4.5 nM, biotinylated LIF 9 nM, read-out: LIFR IC50 AlphaScreen (inhibition of LIFR/LIF binding)
T2 construct: purchased Sino Biological (LIFR); R&D Systems (LIF)
T2 sequence (P42702 45-833 limits assumed): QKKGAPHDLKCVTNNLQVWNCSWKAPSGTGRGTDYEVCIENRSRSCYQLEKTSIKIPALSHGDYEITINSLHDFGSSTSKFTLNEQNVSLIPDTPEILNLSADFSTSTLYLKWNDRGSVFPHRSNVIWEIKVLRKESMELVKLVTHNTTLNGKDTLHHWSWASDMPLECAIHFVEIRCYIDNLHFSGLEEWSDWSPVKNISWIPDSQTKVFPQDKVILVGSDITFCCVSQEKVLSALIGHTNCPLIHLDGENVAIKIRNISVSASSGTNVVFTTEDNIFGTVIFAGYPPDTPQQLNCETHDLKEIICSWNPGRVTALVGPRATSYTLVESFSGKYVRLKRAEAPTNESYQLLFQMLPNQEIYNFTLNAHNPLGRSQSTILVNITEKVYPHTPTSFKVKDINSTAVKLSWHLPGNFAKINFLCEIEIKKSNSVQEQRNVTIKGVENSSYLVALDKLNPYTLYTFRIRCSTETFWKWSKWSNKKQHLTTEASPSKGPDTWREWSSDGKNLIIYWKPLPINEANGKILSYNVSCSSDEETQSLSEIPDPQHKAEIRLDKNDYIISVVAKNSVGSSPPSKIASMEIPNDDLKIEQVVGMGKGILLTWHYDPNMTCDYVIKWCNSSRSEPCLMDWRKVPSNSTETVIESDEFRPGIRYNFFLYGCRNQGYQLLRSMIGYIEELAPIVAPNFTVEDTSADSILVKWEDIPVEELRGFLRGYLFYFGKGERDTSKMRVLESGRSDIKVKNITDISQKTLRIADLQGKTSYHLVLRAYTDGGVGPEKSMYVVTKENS
Method: Recombinant human LIFR (His Tag) and biotinylated recombinant human LIF were purchased from Sino Biologicals (Sino Biological Europe GmbH, Dusseldorf, Germany) and R&D Systems (Abingdon, UK), respectively, and both were reconstituted as required by the manufacturer. […] The assay was carried out in white, low-volume, 384-well AlphaPlates (PerkinElmer, Waltham, MA, USA) using a final volume of 25 µL and an assay buffer containing 25 mM Hepes (pH 7.4), 100 mM NaCl, and 0.005% Kathon. The concentration of DMSO in each well was maintained at 5%. […] Then, LIF was added (biotinylated, final concentration 9 nM), and the samples were incubated for 15 min prior to adding His-Tag acceptor beads (final concentration 20 ng/µL) for 30 min. Then, streptavidin donor beads were added (final concentration 20 ng/µL), and the plate was incubated in the dark for 2 h and then read in an EnSpire Alpha multimode plate reader (PerkinElmer, Waltham, MA, USA).

| Structure (SMILES) | effect on LIF-induced proliferation (MTS) (MIA PaCa-2 cells; LIF 10 ng/mL + BAR502 5, 10, 20 µM, 24 h, serum free) | EC50 (human GPBAR1; transactivation, agonism, read-out: GPBAR1 EC50 Transact) | IC50 (LIF/LIFR complex) | effect of PDL103 co-treatment on BAR502 action on LIF/LIFR induced proliferation and EMT (MIA PaCa-2 cells; PDL103 10 μM + BAR502 10 μM + LIF 10 ng/ml) | IC50 (human GPBAR1; Hek293T, transactivation induced by TLCA (10 μM), read-out: Hek293T GPBAR1 Antagonism IC50) | effect on LIF/LIFR complex formation (LIFR antagonism), in words (LIF/LIFR complex; cell-free Alpha Screen) |
| --- | --- | --- | --- | --- | --- | --- |
| CC[C@H]1[C@@H](O)C2C3CC[C@H]([C@H](C)CCO)[C@@]3(C)CCC2[C@@]2(C)CC[C@@H](O)C[C@@H]12 (stereo partly shown) [BAR502] | reversed the LIF-proliferative effect in a concentration-dependent manner | 0.4 ± 0.1 µM | 3.6 µM and 3.59 µM | – | – | – |
| OCc1ccc(-c2ccc(OCc3cc(-c4c(Cl)cccc4Cl)no3)cc2)cc1 [PDL103, (4’-((3-(2,6-dichlorophenyl)isoxazol-5-yl)methoxy)-[1,1’-biphenyl]-4-yl)methanol] | – | – | 97.5 ± 29.3 µM | failed to reverse the effect of BAR502 | 19 µM | inactive |
